Active and inactive are the calls of the source.
Experiments:
[1] = HIV-1 Vif–A3G interaction blockers – biochemical, TR-FRET, GST-Vif 1-94, biotin-A3G peptide, dose response retest, primary screen (AID 1117319); assay type: functional;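 note: TR-FRET signal of purified GST-Vif binding a biotinylated A3G peptide; inhibitors lower the FRET signal by blocking Vif and A3G binding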
[2] = NIH-3T3 fibroblast cytotoxicity, dose response, cytotoxicity control, cell-based, fluorescence, Alamar Blue, secondary assay (AID 2327); assay type: functional;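 note: NIH-3T3 mouse fibroblasts cultured with fluconazole at 8 µg/mL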
[3] = fluconazole-exposed Candida albicans growth modulators – fluorescence, retest, confirmation (AID 2467); assay type: functional, cell-based
[4] = viability loss in THP-1 monocytes – THP-1 cells, cytotoxicity control for Vif-APOBEC3G degradation inhibitor project, dose response (AID 1117359); assay type: functional; details: THP-1
Albumin = Albumin (Bos taurus, UniProt P02769); assay: Counterscreen for inhibitors of T-cell receptor (TCR)-CD3 interaction: Fluorescence-based biochemical high throughput dose response assay to identify inhibitors of T-cell receptor (TCR)-CD3 interaction using a TAMRA-labeled BSA probe.; assay type: functional
Albumin, sequence (P02769 whole entry): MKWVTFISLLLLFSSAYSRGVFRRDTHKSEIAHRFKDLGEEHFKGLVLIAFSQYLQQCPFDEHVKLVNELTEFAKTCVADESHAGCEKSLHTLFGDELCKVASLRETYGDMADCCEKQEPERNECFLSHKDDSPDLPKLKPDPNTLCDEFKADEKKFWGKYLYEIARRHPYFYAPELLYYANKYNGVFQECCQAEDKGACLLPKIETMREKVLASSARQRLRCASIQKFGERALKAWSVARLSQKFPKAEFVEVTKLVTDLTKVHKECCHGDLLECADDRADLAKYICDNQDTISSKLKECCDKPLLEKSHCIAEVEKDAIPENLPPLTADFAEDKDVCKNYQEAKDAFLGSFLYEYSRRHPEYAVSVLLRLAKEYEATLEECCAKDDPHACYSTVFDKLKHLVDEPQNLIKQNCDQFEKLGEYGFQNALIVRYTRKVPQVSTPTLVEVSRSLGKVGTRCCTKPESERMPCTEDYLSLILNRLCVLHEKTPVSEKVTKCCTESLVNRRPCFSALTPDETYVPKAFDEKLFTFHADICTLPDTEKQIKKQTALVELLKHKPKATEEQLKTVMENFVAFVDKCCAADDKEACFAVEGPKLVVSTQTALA

Cytochrome P450 1A2 = biological target: T1, Cytochrome P450 1A2 (Homo sapiens, UniProt P05177);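 note: PubChem cytochrome P450 panel assay, CYP1A2 panel member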
T1 sequence (P05177 whole entry): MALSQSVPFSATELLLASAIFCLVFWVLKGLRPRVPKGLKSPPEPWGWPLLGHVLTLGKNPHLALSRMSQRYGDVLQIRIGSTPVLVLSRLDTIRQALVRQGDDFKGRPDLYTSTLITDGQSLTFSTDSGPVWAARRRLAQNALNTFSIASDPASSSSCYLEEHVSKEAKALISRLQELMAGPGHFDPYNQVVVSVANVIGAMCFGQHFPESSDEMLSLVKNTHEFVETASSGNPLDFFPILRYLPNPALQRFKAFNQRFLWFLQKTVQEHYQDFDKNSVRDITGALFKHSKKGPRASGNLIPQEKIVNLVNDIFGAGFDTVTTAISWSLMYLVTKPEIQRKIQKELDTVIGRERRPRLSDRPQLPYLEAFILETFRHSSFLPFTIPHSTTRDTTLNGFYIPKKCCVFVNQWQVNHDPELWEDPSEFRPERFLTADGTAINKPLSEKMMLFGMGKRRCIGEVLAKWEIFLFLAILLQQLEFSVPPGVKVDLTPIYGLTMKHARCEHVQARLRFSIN

Cytochrome P450 3A4 = Cytochrome P450 3A4 (Homo sapiens, UniProt P08684);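 note: CYP3A4 tested as one member of a cytochrome P450 panel screen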
Cytochrome P450 3A4, sequence (P08684 whole entry): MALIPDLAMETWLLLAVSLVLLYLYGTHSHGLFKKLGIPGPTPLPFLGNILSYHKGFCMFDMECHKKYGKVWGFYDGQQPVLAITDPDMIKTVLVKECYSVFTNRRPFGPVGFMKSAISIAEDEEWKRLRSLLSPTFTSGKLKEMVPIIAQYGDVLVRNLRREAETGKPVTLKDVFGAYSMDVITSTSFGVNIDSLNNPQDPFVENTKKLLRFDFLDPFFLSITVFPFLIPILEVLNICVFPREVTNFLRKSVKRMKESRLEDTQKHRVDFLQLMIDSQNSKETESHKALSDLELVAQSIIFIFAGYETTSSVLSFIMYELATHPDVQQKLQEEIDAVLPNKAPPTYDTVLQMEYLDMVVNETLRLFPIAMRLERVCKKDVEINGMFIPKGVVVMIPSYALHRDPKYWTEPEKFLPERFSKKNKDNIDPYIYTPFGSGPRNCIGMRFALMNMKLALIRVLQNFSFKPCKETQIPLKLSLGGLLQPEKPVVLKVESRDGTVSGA

Cytochrome P450 2C9 = Cytochrome P450 2C9 (Homo sapiens, UniProt P11712)
Cytochrome P450 2C9, sequence (P11712 whole entry): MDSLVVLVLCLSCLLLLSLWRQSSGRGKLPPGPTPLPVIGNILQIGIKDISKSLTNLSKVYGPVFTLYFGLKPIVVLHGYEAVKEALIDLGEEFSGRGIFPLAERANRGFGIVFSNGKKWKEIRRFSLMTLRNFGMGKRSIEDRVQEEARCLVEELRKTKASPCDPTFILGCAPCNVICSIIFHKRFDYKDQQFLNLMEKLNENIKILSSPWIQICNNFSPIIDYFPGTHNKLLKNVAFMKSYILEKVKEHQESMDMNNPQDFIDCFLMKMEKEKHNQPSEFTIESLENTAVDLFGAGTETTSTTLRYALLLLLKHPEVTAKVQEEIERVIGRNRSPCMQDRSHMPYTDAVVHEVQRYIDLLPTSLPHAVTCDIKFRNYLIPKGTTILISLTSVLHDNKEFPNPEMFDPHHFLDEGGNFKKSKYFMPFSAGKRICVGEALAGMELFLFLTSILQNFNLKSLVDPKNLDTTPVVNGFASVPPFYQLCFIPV

[5] = toxicity toward HepG2 liver cells – cell-based, plate reader, cherry-pick, antagonist series, cytotoxicity control, dose response (AID 743416); assay type: functional
[6] = biological target: T2, Sentrin-specific protease 6 (Homo sapiens, UniProt Q9GZR1); assay type: functional;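 note: Luminescence-based dose-response confirmatory assay of SENP6 inhibition, following up an ultra-high-throughput screen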
T2 sequence (Q9GZR1 whole entry): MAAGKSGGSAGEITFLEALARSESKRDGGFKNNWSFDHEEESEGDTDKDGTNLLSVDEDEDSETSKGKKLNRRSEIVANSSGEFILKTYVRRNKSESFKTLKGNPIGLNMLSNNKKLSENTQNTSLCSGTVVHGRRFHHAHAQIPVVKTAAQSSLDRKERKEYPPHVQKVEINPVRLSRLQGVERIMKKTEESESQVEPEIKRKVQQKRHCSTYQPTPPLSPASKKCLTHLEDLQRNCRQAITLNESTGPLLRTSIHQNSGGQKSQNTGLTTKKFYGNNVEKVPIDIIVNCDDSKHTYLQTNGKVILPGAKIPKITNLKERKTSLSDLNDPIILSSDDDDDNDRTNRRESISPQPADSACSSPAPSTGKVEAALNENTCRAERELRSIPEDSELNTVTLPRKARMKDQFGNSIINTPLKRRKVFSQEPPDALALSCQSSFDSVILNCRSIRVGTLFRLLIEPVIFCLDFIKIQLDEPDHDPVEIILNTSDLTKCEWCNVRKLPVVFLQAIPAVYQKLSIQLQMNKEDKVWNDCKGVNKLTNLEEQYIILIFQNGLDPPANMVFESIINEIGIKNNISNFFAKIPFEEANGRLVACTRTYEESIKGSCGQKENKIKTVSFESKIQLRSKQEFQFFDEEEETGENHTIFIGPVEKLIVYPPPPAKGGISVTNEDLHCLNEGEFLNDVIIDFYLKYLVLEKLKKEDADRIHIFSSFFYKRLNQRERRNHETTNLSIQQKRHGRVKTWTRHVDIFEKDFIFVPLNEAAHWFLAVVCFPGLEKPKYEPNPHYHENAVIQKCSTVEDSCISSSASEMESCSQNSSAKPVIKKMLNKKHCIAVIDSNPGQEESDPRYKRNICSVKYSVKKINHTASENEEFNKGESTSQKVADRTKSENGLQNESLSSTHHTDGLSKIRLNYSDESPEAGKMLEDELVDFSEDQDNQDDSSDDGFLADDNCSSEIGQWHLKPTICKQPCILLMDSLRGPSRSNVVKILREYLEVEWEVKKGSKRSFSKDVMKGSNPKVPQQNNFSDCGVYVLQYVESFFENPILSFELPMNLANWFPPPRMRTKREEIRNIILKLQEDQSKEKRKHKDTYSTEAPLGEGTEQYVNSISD

[7] = A549 cell cytotoxicity, dose response, cytotoxicity control, plate reader, cherry-pick, antagonist series (AID 743412); assay type: functional, cell-based
[8] = biological target: T3, Sentrin-specific protease 8 (Homo sapiens, UniProt Q96LD8); assay type: functional;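 note: luminescence read-out of SENP8 inhibition, dose-response confirmation following an ultra-high-throughput screen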
T3 sequence (Q96LD8 whole entry): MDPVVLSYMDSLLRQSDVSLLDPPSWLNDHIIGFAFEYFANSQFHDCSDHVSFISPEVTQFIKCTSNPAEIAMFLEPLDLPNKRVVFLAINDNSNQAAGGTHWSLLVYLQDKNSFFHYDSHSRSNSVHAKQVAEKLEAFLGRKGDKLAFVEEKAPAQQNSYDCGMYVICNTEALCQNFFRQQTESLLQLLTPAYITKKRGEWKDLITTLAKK

[9] = biological target: T4, Sentrin-specific protease 7 (Homo sapiens, UniProt Q9BQF6); assay type: functional;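 note: Luminescence-based dose-response confirmation of ultra-high-throughput screening hits, measuring inhibition of SENP7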
T4 sequence (Q9BQF6 whole entry): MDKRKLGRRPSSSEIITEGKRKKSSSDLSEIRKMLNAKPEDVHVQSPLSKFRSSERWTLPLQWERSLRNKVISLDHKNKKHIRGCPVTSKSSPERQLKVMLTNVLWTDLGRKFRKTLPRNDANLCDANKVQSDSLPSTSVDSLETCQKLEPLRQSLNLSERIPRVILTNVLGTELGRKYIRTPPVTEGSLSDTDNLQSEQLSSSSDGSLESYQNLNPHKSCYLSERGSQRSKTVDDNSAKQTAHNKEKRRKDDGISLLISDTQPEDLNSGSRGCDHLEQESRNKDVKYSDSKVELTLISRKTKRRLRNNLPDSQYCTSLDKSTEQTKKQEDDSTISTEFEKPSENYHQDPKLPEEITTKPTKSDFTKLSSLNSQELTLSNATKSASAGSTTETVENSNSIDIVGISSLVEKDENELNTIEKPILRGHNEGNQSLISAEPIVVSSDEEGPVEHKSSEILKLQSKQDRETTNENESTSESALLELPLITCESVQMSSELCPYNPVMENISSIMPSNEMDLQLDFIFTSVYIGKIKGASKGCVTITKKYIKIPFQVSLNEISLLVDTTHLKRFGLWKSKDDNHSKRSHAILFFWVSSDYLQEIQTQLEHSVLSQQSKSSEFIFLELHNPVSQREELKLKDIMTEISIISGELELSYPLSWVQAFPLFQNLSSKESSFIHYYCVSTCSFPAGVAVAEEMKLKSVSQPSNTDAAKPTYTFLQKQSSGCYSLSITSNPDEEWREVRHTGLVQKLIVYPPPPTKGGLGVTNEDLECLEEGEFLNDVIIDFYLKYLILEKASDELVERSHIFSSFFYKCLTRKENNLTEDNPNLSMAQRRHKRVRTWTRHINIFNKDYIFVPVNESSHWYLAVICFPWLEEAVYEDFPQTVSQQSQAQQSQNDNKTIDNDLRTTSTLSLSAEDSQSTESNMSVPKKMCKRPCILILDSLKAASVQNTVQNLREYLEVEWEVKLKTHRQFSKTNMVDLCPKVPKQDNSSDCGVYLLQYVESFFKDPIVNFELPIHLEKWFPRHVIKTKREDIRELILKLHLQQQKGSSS

[10] = blockers of bursicon-stimulated LGR2 cAMP reporter – cell-based, HEK293, CRE-luciferase reporter, cherry pick, set 2, dose response (AID 743343); assay type: functional;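 note: transfected cells were stimulated with diluted bursicon conditioned medium after compound addition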
[11] = blockade of melanocortin 4 receptor signaling – cell-based, plate reader, cherry pick, counter-screen for LGR2 antagonist project, dose response (AID 743444); assay type: functional;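 note: transfected HEK 293 cells stimulated with alpha-MSH peptide; potency of inhibitors of the alpha-MSH evoked signal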
[12] = viability loss in HEK293 cells – cell-based, plate reader, cherry-picked samples, cytotoxicity control, dose response (AID 743446); assay type: functional
Caspase-3 = biological target: T5, Caspase-3 (Homo sapiens, UniProt P42574); assay type: functional;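 note: Dose-response selectivity test against caspase-3 for candidate inhibitors of sentrin-specific proteases (SENPs)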
T5 sequence (P42574 whole entry): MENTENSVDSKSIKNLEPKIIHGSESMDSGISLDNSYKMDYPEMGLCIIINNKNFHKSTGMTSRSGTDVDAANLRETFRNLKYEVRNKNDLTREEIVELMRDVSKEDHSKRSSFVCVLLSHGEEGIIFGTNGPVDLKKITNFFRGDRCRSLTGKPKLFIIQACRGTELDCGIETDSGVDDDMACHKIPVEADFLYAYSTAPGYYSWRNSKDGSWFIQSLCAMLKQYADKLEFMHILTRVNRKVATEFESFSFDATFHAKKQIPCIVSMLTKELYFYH

[13] = biological target: T6, Rac GTPase-activating protein 1 (Homo sapiens, UniProt Q9H0H5); assay: blockers of MgcRacGAP-driven Rac1 GTP hydrolysis – biochemical, ADP Hunter fluorescence, primary and confirmatory, confirmation (AID 624330); assay type: functional
T6 sequence (Q9H0H5 whole entry): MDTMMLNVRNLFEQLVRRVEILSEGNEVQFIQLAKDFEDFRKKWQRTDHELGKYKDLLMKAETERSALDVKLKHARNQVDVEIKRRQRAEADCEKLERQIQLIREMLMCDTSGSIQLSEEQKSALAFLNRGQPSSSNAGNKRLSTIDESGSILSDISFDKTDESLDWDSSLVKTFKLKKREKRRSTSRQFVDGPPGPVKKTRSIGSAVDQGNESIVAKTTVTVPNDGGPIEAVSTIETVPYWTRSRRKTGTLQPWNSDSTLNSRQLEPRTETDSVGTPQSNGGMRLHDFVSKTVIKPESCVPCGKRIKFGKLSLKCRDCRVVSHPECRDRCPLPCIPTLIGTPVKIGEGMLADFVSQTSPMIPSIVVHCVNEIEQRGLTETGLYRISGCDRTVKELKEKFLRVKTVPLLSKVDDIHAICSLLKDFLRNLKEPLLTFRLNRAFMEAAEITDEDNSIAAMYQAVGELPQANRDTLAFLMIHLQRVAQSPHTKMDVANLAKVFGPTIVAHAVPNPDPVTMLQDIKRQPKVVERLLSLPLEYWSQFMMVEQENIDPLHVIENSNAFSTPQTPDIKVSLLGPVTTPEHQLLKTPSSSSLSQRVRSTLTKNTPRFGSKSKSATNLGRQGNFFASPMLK

[14] = viability loss in HeLa cells – cytotoxicity control for MgcRacGAP inhibitor project, dose response (AID 624300); assay type: functional
Vero = assay: viability of Vero cells under compound – cytotoxicity control for flavivirus capping enzyme inhibitors (AID 588742); assay type: functional; details: Chlorocebus sabaeus

SMILES: C/C(O)=C1/C(=O)N(C)C(=S)N(c2ccccc2)C1=O
- IC50 [1]: > 100 µM (active)

SMILES: O=C(NNC(=O)c1ccccc1O)c1ccc(-c2ccc([N+](=O)[O-])cc2)o1
- EC50 [2]: > 150 µM (inactive)
- EC50 [3]: > 38 µM (not active)
- CC50 [4]: 15.3 µM (active)
- IC50 (Albumin): > 94.1 µM (inactive)

SMILES: CCN(CC)C(=O)CCNS(=O)(=O)c1ccc(C)cc1
- AC50 (Cytochrome P450 1A2): 28.2 µM (inconclusive)
- IC50 [1]: > 100 µM (active)
- AC50 (Cytochrome P450 3A4): 25.1 µM (inconclusive)
- AC50 (Cytochrome P450 2C9): inconclusive

SMILES: Cn1c(-c2ccccc2)cc2onc(-c3ccccc3)c2c1=O
- AC50 [5]: 34.4 µM (active)
- IC50 [6]: 1.51 µM (active)
- AC50 [7]: > 52 µM (inactive)
- IC50 [8]: 3.11 µM (active)
- IC50 [9]: 1.14 µM (active)
- AC50 [10]: 3.08 µM (active)
- AC50 [11]: 3.66 µM (active)
- AC50 [12]: 51.9 µM (active)
- IC50 (Caspase-3): 2.4 µM (active)

SMILES: Cc1ccc(-c2csc(NC(=O)c3ccc(-c4ccccc4)cc3)n2)o1
- IC50 [1]: > 100 µM (active)

SMILES: COc1ccccc1C(=O)C1CCCN(Cc2ccc3c(c2)OCCO3)C1 (centres undefined)
- CC50 [4]: > 40 µM (active)

SMILES: O=C(OC(C(=O)NCc1cccs1)c1ccccc1Cl)c1ccco1 (centres undefined)
- CC50 [4]: > 40 µM (active)

SMILES: COC(=O)Cc1cc(O)n2nc(C)cc2n1
- IC50 [1]: > 100 µM (active)

SMILES: Cc1cc(C)n(CC(O)CN2c3ccccc3Sc3ccccc32)n1 (centres undefined)
- IC50 [1]: > 100 µM (active)
- IC50 [13]: 82.6 µM (active)
- CC50 [14]: 100 µM (active)

SMILES: Cc1ccc(NC(=O)CSc2nnc(C3CCCCC3)n2N)cc1F
- IC50 [1]: > 100 µM (active)

SMILES: CCOc1cccc(CNc2ccc(O)cc2)c1OCc1ccccc1Cl
- CC50 (Vero): > 40 µM (active)
- CC50 [4]: 23 µM (active)

SMILES: O=C(O)CN1C(=O)CSc2ccccc21
- IC50 [1]: > 100 µM (active)
